Broadly, the Cmax is the highest concentration seen after dosing.

“Also recorded” adds a separate entry of the source.

Consider two molecules from US20250228840A1, “METHODS OF TREATING SJÖGREN-LARSSEN SYNDROME” (Aldeyra Therapeutics, Inc., priority 2022, published 2025).

The subject of data set [1] is cultured Chinese hamster cells lacking FALDH. The experiment in a line: Fatty aldehyde adducts, cytotoxicity and metabolism in cultured FALDH-deficient cells. The data set is classed as cell-based. The source says: (§1) Aldehydes are toxic molecules due to their propensity to covalently attach to proteins and other target molecules containing certain reactive chemical groups. Drugs that detoxify reactive aldehydes are under development for various inflammatory conditions characterized by the excessive formation of aldehydes. […] This clinical trial will investigate the safety and biochemical efficacy of systemic administration of Compound 1 in SLS.
There are no satisfactory animal models of SLS, thereby limiting preclinical testing to in vitro cellular studies. […] The detoxified ADX-102-fatty aldehyde by-products are degraded intracellularly. Thus, treatment of cultured FALDH-deficient cells with ADX-102 bypasses the lost catabolic function of FALDH on aldehydes in SLS and diminishes aldehyde load.

Another data set is described as follows: Oral absorption. Format: in vivo.
Description: as §1

Data set [2] relates to allergic conjunctivitis and dry eye. As to conditions: ophthalmic preparation, Phase-2; cited from earlier work.
Data set [3] concerns cultured Chinese hamster cells lacking FALDH. Conditions: cultured FALDH-deficient cells; long-chain (C16-C18) fatty aldehydes; cited from earlier work.
The next data set relates to SLS subjects. As to conditions: applied topically as a cream; cited from earlier work.
The nature of data set [4]: Exemplary PK results after oral administration of I-1 unit dosage form, daily dose 20-1200 mg (Table 2). Conditions: human subject. Format: in vivo. The procedure: In some embodiments, a unit dosage form described herein that comprises compound I-1, or a pharmaceutically acceptable salt thereof, upon oral administration to a human subject in a daily dose of 20 mg, 50 mg, 100 mg, 200 mg, 400 mg, 700 mg, or 1200 mg (or about such doses, as the case may be), provides a pharmacokinetic result shown in the table below:
In some embodiments, the human subject is a healthy human subject.
In some embodiments, the pharmacokinetic result described herein is obtained in a healthy human subject.

As for `CC(C)(O)c1nc2ccc(Cl)cc2cc1N` [ADX-102, 2-[3-amino-6-chloro-quinolin-2-yl]-propan-2-ol], the “fatty aldehyde cytotoxicity and apoptosis” value in data set [1] is “mitigate aldehyde cytotoxicity; also recorded: reverses fatty aldehyde cytotoxicity and apoptosis”. In addition, the “metabolism of fatty aldehyde to fatty alcohol” value in data set [1] (C18:0, octadecanal, data not shown) is “prevent metabolism of fatty aldehydes to fatty alcohols; also recorded: blocks the metabolism of fatty aldehyde (C18:0, octadecanal) to fatty alcohol”. Also, the “effect on synthesis or degradation of fatty alcohol itself” value in data set [1] (data not shown) is recorded as “no effect”. Also, the oral absorption result in “Oral absorption” is on record as “poor absorption qualities”. In addition, the “clinical activity in allergic conjunctivitis and dry eye” value in data set [2] is reported as “beneficial activity”. For the same molecule, the “formation of fatty aldehyde covalent adducts with PE (NAPE) / cellular lipids” value in data set [3] is listed as “block the formation of long-chain (C16-C18) fatty aldehyde adducts with cellular lipids; also recorded: prevents fatty aldehydes from forming covalent adducts with PE (NAPE)”. The ichthyosis entry in the data set with SLS subjects is listed as “improve ichthyosis”.
As to `CC(C)(O)c1nc2ccccc2cc1N` [Compound I-1], in “Oral absorption”, the oral absorption result is recorded as “well-absorbed orally”. Also, the AUCinf amounted to 50.0 ng·h/mL in data set [4] (daily dose 20 mg (or about)); 156 ng·h/mL in data set [4] (daily dose 50 mg (or about)); 433 ng·h/mL in data set [4] (daily dose 100 mg (or about)); 1140 ng·h/mL in data set [4] (daily dose 200 mg (or about)); 2730 ng·h/mL in data set [4] (daily dose 400 mg (or about)); 6710 ng·h/mL in data set [4] (daily dose 700 mg (or about)). In data set [4] (daily dose 1200 mg (or about)), this molecule yielded an AUCinf of 14500 ng·h/mL. For the same molecule, the Cmax in data set [4] (daily dose 20 mg (or about)) was determined as 26.4 ng/mL; in data set [4] (daily dose 50 mg (or about)), 56.7 ng/mL; in data set [4] (daily dose 100 mg (or about)), 140 ng/mL; in data set [4] (daily dose 200 mg (or about)), 459 ng/mL; in data set [4] (daily dose 400 mg (or about)), 869 ng/mL; in data set [4] (daily dose 700 mg (or about)), 2020 ng/mL. Besides, the Cmax in data set [4] (daily dose 1200 mg (or about)) amounted to 4220 ng/mL. Also, the t1/2 is roughly 3.52 h in data set [4] (daily dose 100 mg (or about)); roughly 6.04 h in data set [4] (daily dose 200 mg (or about)); roughly 6.15 h in data set [4] (daily dose 400 mg (or about)); roughly 7.33 h in data set [4] (daily dose 700 mg (or about)); roughly 7.69 h in data set [4] (daily dose 1200 mg (or about)).
